This note sets out measurements from patent US20070037817A1, “Acetylenic piperazines as metabotropic glutamate receptor antagonists” (AstraZeneca AB, priority 2005, published 2007).

In this assay the target is T1, human mGluR5d (Homo sapiens, UniProt P41594).
T1 construct: expressed in transfected cells; host or cells: GHEK (HEK cells expressing a glutamate transporter) for the IP3 assay
The assay is described as follows: Functional assessment of mGluR5 antagonism in cell lines expressing mGluR5d (FLIPR [Ca2+]i mobilization assay / IP3 turnover assay; assay behind the values not specified). Type of assay: cell-based. As to conditions: assays described herein (FLIPR or IP3), cells expressing human mGluR5d. An excerpt:
The pharmacological properties of the compounds of the invention can be analyzed using standard assays for functional activity. Examples of glutamate receptor assays are well known in the art as described in for example Aramori et al., Neuron 8:757 (1992), Tanabe et al., Neuron 8:169 (1992), Miller et al., J. Neuroscience 15: 6103 (1995), Balazs, et al., J Neurochemistry 69:151 (1997). The methodology described in these publications is incorporated herein by reference. Conveniently, the compounds of the invention can be studied by means of an assay that measures the mobilization of intracellular calcium, [Ca^2+]i in cells expressing mGluR5.
Intracellular calcium mobilization was measured by detecting changes in fluorescence of cells loaded with the fluorescent indicator fluo-3. Fluorescent signals were measured using the FLIPR system (Molecular Devices). A two addition experiment was used that could detect compounds that either activate or antagonize the receptor.
For FLIPR analysis, cells expressing human mGluR5d were seeded on collagen coated clear bottom 96-well plates with black sides and analysis of [Ca^2+]i mobilization was done 24 hours after seeding.
FLIPR experiments were done using a laser setting of 0.800 W and a 0.4 second CCD camera shutter speed. Each FLIPR experiment was initiated with 160 μL of buffer present in each well of the cell plate. After each addition of the compound, the fluorescence signal was sampled 50 times at 1 second intervals followed by 3 samples at 5 second intervals. Responses were measured as the peak height of the response within the sample period.
EC50 and IC50 determinations were made from data obtained from 8-point concentration response curves (CRC) performed in duplicate. Agonist CRC were generated by scaling all responses to the maximal response observed for the plate. Antagonist block of the agonist challenge was normalized to the average response of the agonist challenge in 14 control wells on the same plate.
We have validated a secondary functional assay for mGluR5d based on Inositol Phosphate (IP3) turnover. IP3 accumulation is measured as an index of receptor mediated phospholipase C turnover. GHEK cells stably expressing the human mGluR5d receptors were incubated with [3H] myo-inositol overnight, washed three times in HEPES buffered saline and pre-incubated for 10 min. with 10 mM LiCl. Compounds (agonists) were added and incubated for 30 min. at 37° C. Antagonist activity was determined by pre-incubating test compounds for 15 min., then incubating in the presence of glutamate (80 μM) or DHPG (30 μM) for 30 min. Reactions were terminated by the addition of perchloric acid (5%). Samples were collected and neutralized, and inositol phosphates were separated using Gravity-Fed Ion-Exchange Columns.
Functional assessment of mGluR5 Antagonism in Cell Lines Expressing mGluR5D
The properties of the compounds of the invention can be analyzed using standard assays for pharmacological activity. Examples of glutamate receptor assays are well known in the art as described in for example Aramori et al., Neuron 8:757 (1992), Tanabe et al., Neuron 8:169 (1992), Miller et al., J. Neuroscience 15: 6103 (1995), Balazs, et al., J. Neurochemistry 69:151 (1997). The methodology described in these publications is incorporated herein by reference. Conveniently, the compounds of the invention can be studied by means of an assay (FLIPR) that measures the mobilization of intracellular calcium, [Ca^2+]i in cells expressing mGluR5 or another assay (IP3) that measures inositol phosphate turnover.
Cells expressing human mGluR5d as described in WO97/05252 are seeded at a density of 100,000 cells per well on collagen coated clear bottom 96-well plates with black sides and experiments are done 24 h following seeding. All assays are done in a buffer containing 127 mM NaCl, 5 mM KCl, 2 mM MgCl2, 0.7 mM NaH2PO4, 2 mM CaCl2, 0.422 mg/ml NaHCO3, 2.4 mg/ml HEPES, 1.8 mg/ml glucose and 1 mg/ml BSA Fraction IV (pH 7.4). […]

T1 sequence (P41594 21-942 isoform P41594-3 limits assumed): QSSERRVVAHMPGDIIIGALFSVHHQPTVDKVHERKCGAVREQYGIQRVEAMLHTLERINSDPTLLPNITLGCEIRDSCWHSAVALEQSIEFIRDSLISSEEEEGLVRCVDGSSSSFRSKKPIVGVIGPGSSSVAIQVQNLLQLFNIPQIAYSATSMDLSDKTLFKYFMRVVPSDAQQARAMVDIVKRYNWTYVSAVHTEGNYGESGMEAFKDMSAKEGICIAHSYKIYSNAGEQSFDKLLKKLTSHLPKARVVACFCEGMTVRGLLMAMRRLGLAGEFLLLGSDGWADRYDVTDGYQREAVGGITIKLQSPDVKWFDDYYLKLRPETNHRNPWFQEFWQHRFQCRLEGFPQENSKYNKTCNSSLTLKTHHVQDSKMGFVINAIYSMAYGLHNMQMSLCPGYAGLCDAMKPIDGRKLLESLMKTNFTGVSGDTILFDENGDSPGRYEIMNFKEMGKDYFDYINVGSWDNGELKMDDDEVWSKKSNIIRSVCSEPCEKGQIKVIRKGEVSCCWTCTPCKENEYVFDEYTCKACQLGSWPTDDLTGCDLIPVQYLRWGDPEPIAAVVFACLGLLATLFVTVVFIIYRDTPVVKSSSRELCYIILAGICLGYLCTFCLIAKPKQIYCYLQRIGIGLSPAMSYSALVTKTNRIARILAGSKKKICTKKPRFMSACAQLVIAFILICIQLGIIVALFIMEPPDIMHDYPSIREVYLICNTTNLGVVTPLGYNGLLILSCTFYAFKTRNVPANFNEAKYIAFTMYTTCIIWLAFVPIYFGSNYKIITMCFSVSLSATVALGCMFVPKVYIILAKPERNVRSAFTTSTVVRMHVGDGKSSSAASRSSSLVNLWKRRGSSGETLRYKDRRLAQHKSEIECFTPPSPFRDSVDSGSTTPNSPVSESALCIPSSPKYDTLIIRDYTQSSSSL

As to `COC(=O)c1cccnc1N1CCN2[C@@H](CC[C@@H]2C#Cc2cccc(Cl)c2)C1` (racemic) [Example 13.12, (±)-methyl 2-[(6R,8aS)-6-[(3-chloro-phenyl)ethynyl]hexahydropyrrolo[1,2-a]pyrazin-2(1H)-yl]nicotinate], the IC50 (in general, the concentration that inhibits the measured activity by half) amounted to 23 nM. This lies in the double-digit nanomolar range.

Turning to `N#Cc1nccnc1N1CCN2[C@@H](CC[C@@H]2C#Cc2nccs2)C1` (racemic) [Example 14.26, (±)-3-[(6R,8aS)-6-(1,3-thiazol-2-yl-ethynyl)hexahydropyrrolo[1,2-a]pyrazin-2(1H)-yl]pyrazine-2-carbonitrile], the IC50 turned out to be 439 nM. Against the preceding compound, the IC50 is about 19-fold higher.

Compound `N#Cc1cccc(C#C[C@H]2CCC[C@H]3CN(c4ncccc4C#N)CCN32)c1` (racemic) [Example 18.3, (±)-2-{(6R,9aS)-6-[(3-cyanophenyl)ethynyl]octahydro-2H-pyrido[1,2-a]pyrazin-2-yl}nicotinonitrile] displayed an IC50 of 20 nM. Against the preceding compound, the IC50 is about 22-fold lower.

As for `N#Cc1cc(F)cnc1N1CCN2[C@@H](CCC[C@@H]2C#Cc2ccccn2)C1` (racemic) [Example 18.7, (±)-5-fluoro-2-[(6R,9aS)-6-(pyridin-2-ylethynyl)octahydro-2H-pyrido [1,2-a]pyrazin-2-yl]nicotinonitrile], the IC50 stood at 83 nM. This IC50 is about 4.2-fold higher than that of the compound before.

`CCOC(=O)N1CCN2[C@@H](CC[C@H]2C#Cc2cccc(Cl)c2)C1` [Example 12.3, ethyl (6S,8aS)-6-[(3-chloro-phenyl)ethynyl]hexahydropyrrolo[1,2-a]pyrazine-2(1H)-carboxylate]: the IC50 was found to be 187 nM.

Take `N#Cc1ccc(N2CCN3[C@@H](CC[C@H]3C#Cc3cccc(Cl)c3)C2)nc1` [Example 13.3, 6-[(6S,8aS)-6-[(3-chlorophenyl)ethynyl]hexahydropyrrolo[1,2-a]pyrazin-2(1H)-yl]nicotinonitrile]: the IC50 is 486 nM. Against the preceding compound, the IC50 is about 2.6-fold higher.
